No end group written: not given here.
How the values were obtained:
CFU-MIX [1] = experiment: CFU-MIX cycling assay after in vivo injection into testosterone or 5FU treated mice; set-up: species or system mouse
Method: In order to test the ability of purified porcine hemoglobin chains to act in vivo, BDF1 mice were injected with testosterone propionate as described in Example 1. Twenty four hours later, mice received 500 ng of either pINPROL, porcine hemoglobin alpha chain (purified from peripheral red blood cells as in FIG. 21), porcine beta chain (purified from peripheral red blood cells as in FIG. 21) or the equivalent volume of carrier intravenously. Forty eight hours later the bone marrow from each mouse was harvested and the CFU-MIX assay conducted as described in Example 14.
To assess the stem cell inhibitory activity of peptide 43-55 in vivo, B6D2 F1 mice were pre-treated with testosterone propionate as described in Example 1 or with 5FU. Specifically, testosterone propionate (100 mg/kg body weight) was injected i.p. on Day 0 into mice. Alternatively, mice were injected on Day 0 with 5FU ([…] body weight).
(§1) 24 hours later (Day 1), varying doses of peptide 43-55 or vehicle were injected i.v. Bone marrow was harvested on Day 2 and the […] cycling assay conducted as in Example 14. Specifically, mice were sacrificed and single cell bone marrow suspensions prepared from the femurs. The cells were washed once and the concentration adjusted to 5×10^6 cells/ml in Fischer medium. For each test condition, one milliliter of cells was added to each of two polypropylene tubes. The tubes were incubated at 37° C. for 3 hours without (“Control”) or with (“Experimental”) the appropriate concentration of test substance. At the end of the incubation, 30 μg/ml of cytosine arabinoside (“Ara C” (Sigma)) was added to half of the tubes and the same volume of Fischer's medium was added to the others. The tubes were incubated for a further 1 hour at 37° C., after which they were placed on ice and washed twice with cold Fischer medium.
(§2) The cells were readjusted to 5×10^4-10^6/ml in Fischer's medium and 0.5 ml of cell suspension added to 5 ml of Methocult M3430 methylcellulose medium (Stem Cell Technologies, Vancouver, British Columbia). The mixture was vigorously mixed with a vortex and 1 ml was dispensed into each of five 35 mm dishes. The 35 mm dishes were in turn placed in a covered 150 mm dish with one open 35 mm dish containing sterile water. CFU-MIX colonies were counted with the use of an inverted microscope after 7 days of incubation at 37° C.
Differences in colony number between the tubes treated with medium versus the tubes treated with Ara C represent the percentage of cells in cycle under that condition according to the formula: […]

CFU-MIX [2] = experiment: Stimulation of cycling of quiescent murine stem cells, CFU-MIX cycling assay in vitro; format: cell-based, mouse
Method: Microgram per milliliter doses of hemoglobin chains, myoglobin and peptides were assayed for stimulation of quiescent stem cells. Bone marrow was obtained from untreated B6D2F1 tested in the CFU-MIX cycling assay as in Example 24. Stem cells isolated from untreated B6D2F1 mice are normally slowly cycling unless stimulated (e.g. by testosterone propionate (cf. Example 1) or chemotherapy such as 5FU (cf. Example 4)) to enter into cycle.

CFU-GEMM [3] = experiment: CFU-GEMM cycling assay, human bone marrow cells; format: cell-based
Method: To assess the bioactivity of recombinant p1-97, the CFU-GEMM cycling assay was used as in Example 18:
CD34^+ stem cells were obtained from Poietic Technologies (Gaithersburg, MD) after purification from human bone marrow by means of a CelUPro column. Cells were incubated for 48 hours with kit ligand and IL-3 and used in a CFU-GEMM cycling assay in Example 26.

CFU-MIX [4] = experiment: CFU-MIX cycling assay in vitro (Ara C kill); format: cell-based, mouse
Method: A similar assay can be performed in vitro, using the cycling status of CFU-MIX instead of CFU-S. The assay is performed as described above for the CFU-S assay except that cytosine arabinoside (Ara C, 30 micrograms/ml) is used as the cycle-specific toxic agent instead of high dose tritiated thymidine (see B. I. Lord in Haemopoiesis—A Practical Approach, N. G. Testa and G. Molineux (Eds.), IRL Press 1993; Pragnell et al. in Culture of Hematopoietic Cells, R. I. Freshney, I. B. Pragnell and M. G. Freshney (Eds.), Wiley Liss 1994) and a mouse strain with high endogenous cycling rates (Balb/c) is used instead of testosterone-treated BDFI mice.
as §1, §2
Differences in colony number between the tubes treated with medium versus the tubes treated with Ara C represent the percentage of cells in cycle under that condition according to the formula:
a=Number of CFU-MIX from tube incubated with medium alone
b=Number of CFU-MIX from tube incubated with Ara C

CFU-GEMM [5] = experiment: CFU-GEMM cycling assay, mobilized human peripheral blood; format: cell-based
Method: Peripheral blood was obtained from breast cancer patients undergoing peripheral stem cell mobilization with cyclophosphamide and G-CSF according to standard protocols. Red blood cells were removed with FicolU Hypaque (cells were diluted 1:1 with IMDM and 20 ml layered on top of 16 ml Ficoll and centrifuged at 800 g for 30 minutes; mononuclear cells were removed from the interphase and washed twice in IMDM). In one case mononuclear cells were stored frozen in liquid nitrogen before assay. The mononuclear cells were plated for the CFU-GEMM cycling assay as in Example 26 except that 2.5-5×10^5 cells were plated per dish.

[6] = Table 33, CD34+ stem cells from human bone marrow, concentration printed only as (ng/ml)

## Human alpha chain: purified, non-recombinant human alpha hemoglobin chain isolated by reversed-phase HPLC
CFU-MIX [1]; Table 14, testosterone-treated BDF1 mice, 500 ng/mouse
  % Kill: −22%
CFU-MIX [1]; Table 22, testosterone-pretreated animals, 500 ng i.v. per 20 gram mouse
  % Kill: 13%
CFU-MIX [1]; Table 23, 5FU-pretreated animals, 500 ng i.v. per 20 gram mouse
  % Kill: 0%
CFU-MIX [2]; Table 37, untreated B6D2F1 bone marrow, 1 μg/ml
  % Kill: 0%
CFU-MIX [2]; Table 37, untreated B6D2F1 bone marrow, 10 μg/ml
  % Kill: 24%
CFU-MIX [2]; Table 37, untreated B6D2F1 bone marrow, 100 μg/ml
  % Kill: 40%
CFU-MIX [2]; Table 39, untreated B6D2F1 bone marrow, 100 μg/ml
  % Kill: 41%
CFU-MIX [2]; Table 40, untreated B6D2F1 bone marrow, 100 μg/ml
  % Kill: 30%
CFU-GEMM [3]; Table 21, human bone marrow mononuclear cells, 100 ng/ml
  % Kill: 11%
CFU-GEMM [3]; [6]
  % Kill: 0%
CFU-MIX [4]; Table 11, bone marrow from Balb/c mice, 100 ng/ml
  % Kill: −1%
CFU-MIX [4]; Table 13, bone marrow from Balb/c mice, 100 ng/ml
  % Kill: 19%
CFU-MIX [4]; Table 20, Balb/c bone marrow, 100 ng/ml
  % Kill: 12%
CFU-MIX [4]; Table 25, Balb/c bone marrow, 100 ng/ml
  % Kill: 0%
CFU-MIX [4]; Table 28, 100 ng/ml, alone
  % Kill: 0%
CFU-MIX [4]; Table 30, 100 ng/ml
  % Kill: 0%
CFU-MIX [4]; Table 31, 100 ng/ml, alone
  % Kill: 0%
CFU-GEMM [5]; Table 34, Patient #1, 100 ng/ml
  % Kill: 0%
CFU-GEMM [5]; Table 35, Patient #2, concentration printed only as (ng/ml)
  % Kill: 2%

## FPHFDLSHGSAQV [Peptide 43-55, amino acids 43-55 of human alpha hemoglobin]
CFU-MIX [1]; Table 22, testosterone-pretreated animals, 0.5 ng i.v. per 20 gram mouse
  % Kill: 0%
CFU-MIX [1]; Table 23, 5FU-pretreated animals, 0.5 ng i.v. per 20 gram mouse
  % Kill: 3%
CFU-MIX [2]; Table 40, untreated B6D2F1 bone marrow, 10 μg/ml
  % Kill: 26%
CFU-GEMM [3]; [6]
  % Kill: 0%
CFU-MIX [4]; Table 17, 1 ng/ml
  % Kill: 11%
CFU-MIX [4]; Table 17, 10 ng/ml
  % Kill: 18%
CFU-MIX [4]; Table 17, 100 ng/ml
  % Kill: 2%
CFU-MIX [4]; Table 18, 100 ng/ml
  % Kill: 5%
CFU-MIX [4]; Table 24, 1 ng/ml
  % Kill: 8%
CFU-MIX [4]; Table 27, Balb/c bone marrow, 1 ng/ml
  % Kill: 8%
CFU-MIX [4]; Table 28, 10 ng/ml, alone
  % Kill: 6%
CFU-MIX [4]; Table 31, 10 ng/ml, alone
  % Kill: 8%
CFU-GEMM [5]; Table 35, Patient #2, 10 ng/ml
  % Kill: 0%
CFU-GEMM [5]; Table 36, Patient #3, cells stored frozen before assay, 0.1 ng/ml
  % Kill: 23%
CFU-GEMM [5]; Table 36, Patient #3, cells stored frozen before assay, 1.0 ng/ml
  % Kill: 0%
CFU-GEMM [5]; Table 36, Patient #3, cells stored frozen before assay, 10 ng/ml
  % Kill: 15%
